Where a chain is given by its changes, count along the chain named. Like-named read-outs stand apart in the source and are kept apart here.
What was measured:
KCNJ5^G151R = target: T1, KCNJ5^G151R (Homo sapiens, UniProt P48544, G151R); experiment: cell-based; type: cell-based
T1 construct: expressed in transfected cells
T1 sequence (P48544 1-419 G151R): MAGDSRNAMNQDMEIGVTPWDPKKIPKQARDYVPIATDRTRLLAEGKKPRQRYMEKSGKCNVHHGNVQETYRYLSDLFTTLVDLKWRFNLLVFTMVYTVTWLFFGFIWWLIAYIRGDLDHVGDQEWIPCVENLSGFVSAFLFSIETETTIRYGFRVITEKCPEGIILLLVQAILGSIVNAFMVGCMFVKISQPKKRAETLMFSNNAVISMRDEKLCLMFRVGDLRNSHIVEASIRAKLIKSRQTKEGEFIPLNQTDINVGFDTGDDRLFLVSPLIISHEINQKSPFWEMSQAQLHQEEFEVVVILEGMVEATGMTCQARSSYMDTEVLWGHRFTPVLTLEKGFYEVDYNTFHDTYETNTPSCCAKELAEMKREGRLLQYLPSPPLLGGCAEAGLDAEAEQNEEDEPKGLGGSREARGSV
Outline: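 Viability is read as cellular ATP by CellTiter-Glo luminescence 72 h later at 37 °C. Uninduced and induced untreated cells set 100% and 0% effect; curves use a 4-parameter logistic fit.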

KCNJ5^L168R = target: T2, KCNJ5^L168R (Homo sapiens, UniProt P48544, L168R); experiment: Cell viability assay (ATP, CellTiter-Glo): rescue of KCNJ5^L168R-induced lethality in inducible HEK293 cells; type: cell-based
T2 construct: expressed in transfected cells
T2 sequence (P48544 1-419 L168R): T1 sequence (P48544 1-419 G151R) with R151G, L168R

[1] = tested as in FIG. 7 (FIGS. 9 and 10)
[2] = 10-point dilution 20 to 0.0391 μM, N=3, four-parameter fit

Molecule | inhibition of KCNJ5^G151R by synthesized macrolide derivatives (KCNJ5^G151R; [1]) | inhibition of KCNJ5^L168R by synthesized macrolide derivatives (KCNJ5^L168R; [1]) | G151R maximum inhibition (KCNJ5^G151R; [2]) [%] | G151R minimum inhibition (KCNJ5^G151R; [2]) [%] | viability at 10 µM (KCNJ5^G151R; HEK293, 72 h, mean of primary screen and hit pick, read-out: mean % effect) [%] | viability at 10 µM (KCNJ5^G151R; HEK293, ATP level 72 h after induction, uninduced = 100%, induced = 0% effect, first of the two runs (primary screen / hit pick), read-out: % effect (1)) [%] | viability at 10 µM (KCNJ5^G151R; HEK293, ATP level 72 h after induction, uninduced = 100%, induced = 0% effect, second of the two runs (primary screen / hit pick, confirmatory testing), read-out: % effect (2)) [%] | rescue of ATP level (KCNJ5^G151R; dose-response at 1.1, 3.3 and 10 μM) | inhibition of KCNJ5^MUT (structure-activity statement) (KCNJ5^G151R; macrolide series, dilution curves) | L168R maximum inhibition (KCNJ5^L168R; [2]) [%] | dose response on KCNJ5^L168R (KCNJ5^L168R; tested at 1.1, 3.3 and 10 μM)
N-demethyl-N-isobutyl-8,9-anhydroerythromycin A 6,9-hemiacetal [PLUX37] | significant inhibition | significant inhibition | – | – | – | – | – | – | – | – | –
CC[C@H]1OC(=O)[C@H](C)[C@@H](O[C@H]2C[C@@](C)(OC)[C@@H](O)[C@H](C)O2)[C@H](C)[C@@H](O[C@@H]2O[C@H](C)C[C@H](N(C)C)[C@H]2O)[C@](C)(O)C[C@@H](C)/C(=N\OCOCCOC)[C@H](C)[C@@H](O)[C@]1(C)O [Roxithromycin, roxithromycin] | – | – | 105.92 | 9.92 | 107 | 108 | 107 | virtually complete rescue of ATP level | potent effects | 81.39 | showed a dose response
